# Data reported in a melting point compilation (Tetko et al.).
row,melting point [°C],SMILES
1,105 to 107,CC(C)(C)c1cn2nc(Br)sc2n1
2,59 to 61,CC(C)(C)c1ccccc1S(=O)(=O)Cl
3,59 to 61,NCC(O)CN1CCc2ccccc2C1 (stereo unspecified)
4,120 to 122,Nc1cccc(CS(=O)(=O)Cc2ccccc2)c1
5,62 to 64,N#CCc1ccc([N+](=O)[O-])cn1
6,112 to 115,Cc1nnc(S)n1C
7,54 to 56,O=C1CCN(c2ccc(Cl)cc2)CC1
8,101 to 103,CC(N)c1ccc2c(c1)CC(=O)N2C (stereo unspecified)
9,179 to 181,COc1cc(C=O)c([N+](=O)[O-])cc1OCC(=O)O
10,138 to 140,Nc1ccc(Oc2cnccn2)cc1
11,180 to 182,C/C(=N\Nc1ccc(Cl)c(C(=O)O)c1)c1ccc(Br)cc1
12,132 to 134,CC(C)(C)OC(=O)N1CCC2(CC1)CC2C(=O)NN (stereo unspecified)
13,267 to 271,O=c1[nH]cnc2ccc(Br)cc12
14,234 to 236,CN(C)C(C)(C(=O)O)c1ccc(F)cc1 (stereo unspecified)
15,188 to 190,CC(=O)c1cccc(S(=O)(=O)NCC(=O)O)c1
16,197 to 199,O=C(O)CCc1ccnc2ccccc12
17,136 to 138,NC(=O)c1cccc(NCc2ccc(F)cc2)c1
18,188 to 190,CNS(=O)(=O)c1ccc(CCC(=O)O)cc1
19,84 to 86,CN(C)C(=O)c1cccc(N)c1
20,217 to 219,O=[N+]([O-])c1cc(S(=O)(=O)N2CCOCC2)ccc1O
21,46 to 48,COc1ccc(CCCCCC(=O)O)cc1
22,162 to 166,COc1cc(C=O)cc(Cl)c1O
23,82 to 84,Cc1nn(-c2ccccc2)c(N)c1-c1ccccc1

row,melting point [°C],SMILES
1,201 to 203,NC(=O)c1c[nH]c2ccccc12
2,54 to 56,Fc1ccc(-c2nc(CCl)cs2)cc1
3,229 to 231,Cc1nc(C)c(CC(=O)O)c(=O)[nH]1
4,225 to 227,O=C(O)c1cc(-c2ccccc2Cl)[nH]n1
5,84 to 86,CN(C)c1ccc2cc(N)ccc2n1
6,162 to 164,COc1cc(OC)cc(C(=O)c2c(N)sc3c2CCC(C)C3)c1 (stereo unspecified)
7,202 to 204,COc1ccc(-c2nnc(S)o2)cc1
8,229 to 231,O=C(O)c1ccc(N2C(=O)C=CC2=O)cc1
9,139 to 141,O=C1CN(c2cc(Cl)ccc2Cl)CC(=O)N1
10,106 to 108,CC(=O)COc1ccc2cc(Br)ccc2c1
11,78 to 80,CCOC(=O)C(=O)c1csc(N)n1
12,151 to 153,Cc1ccc(C)c2sc(N)nc12
13,120 to 122,O=C(O)Cc1ccc(N2CCCC2=O)cc1
14,219 to 221,NC(=O)CCn1c(S)nnc1-c1cccs1
15,204 to 206,Fc1ccc(-c2nnc(S)o2)cc1
16,39 to 41,Nc1ccn(CC(F)(F)F)n1
17,117 to 119,CCC(=O)N1CCCC(C(=O)O)C1 (stereo unspecified)
18,155 to 157,CN(C)S(=O)(=O)c1cccc(NC(=S)NN)c1
19,68 to 72,Cc1sc2nc(CN3CCCC3)nc(Cl)c2c1C
20,187 to 189,CC1(c2ccc(N)cc2)NC(=O)NC1=O (stereo unspecified)
21,225 to 227,Clc1cc2nc(-c3ccccc3)nn2cn1
22,55 to 57,CC(=O)c1ccccc1NC(=O)CCCCl
23,39 to 41,COC(=O)C(N)c1ccc(F)cc1F (stereo unspecified)

row,melting point [°C],SMILES
1,169 to 171,O=C(O)C1CC2CCCCC2N1C(=O)OCC1c2ccccc2-c2ccccc21 (stereo unspecified)
2,188 to 190,CCOC(=O)c1c(C)[nH]c(C(=O)CCl)c1C
3,299 to 301,CC(=O)Nc1nc(C(=O)O)cs1
4,145 to 147,CC(Oc1ccccc1C(F)(F)F)C(=O)O (stereo unspecified)
5,153 to 155,O=C(O)CNC(=O)c1cccc(F)c1
6,118 to 120,Cc1ccc(C=CC(=O)O)o1
7,47 to 50,Clc1cnc2ccccc2n1
8,179 to 181,CC(C)(C)OC(=O)Nc1cc(Br)ccc1C(=O)O
9,240 to 242,Cc1cc(=O)c(C(=O)O)nn1-c1ccccc1[N+](=O)[O-]
10,142 to 144,Brc1ccc2c(c1)c1cc(Br)ccc1n2CC1CO1 (stereo unspecified)
11,143 to 147,Nc1ccc(S(=O)(=O)Nc2cccc(C(F)(F)F)c2)cc1N
12,141 to 143,O=C(CBr)c1ccc2c(c1)Cc1ccccc1-2
13,169 to 171,Cc1cc(C)c([N+](=O)[O-])c(C)c1C(=O)O
14,199 to 201,Oc1ccccc1C1=NCCN1
15,153 to 155,COc1ccc(C(=O)O)cc1S(=O)(=O)Cl
16,159 to 161,O=C(O)c1c[nH]c2cccc(Br)c12
17,57 to 59,N#CCc1ccc(NC2CCCCC2)cc1
18,134 to 136,NS(=O)(=O)c1ccnc(Cl)c1
19,129 to 131,CCS(=O)(=O)c1ccc(F)c(C(=O)O)c1
20,116 to 118,Cc1ccc(S(=O)(=O)Nc2cccc(C(F)(F)F)c2)cc1N
21,189 to 191,COc1cc(=O)[nH]c(NC(=O)CCl)n1
22,184 to 186,O=C(NNC(=O)C(Cl)Cl)c1ccccc1
23,54 to 56,C=CCNc1ccc(C(F)(F)F)cc1C#N

row,melting point [°C],SMILES
1,135 to 137,CC1Cc2c(Br)cccc2C(=O)N1 (stereo unspecified)
2,84 to 86,NCCNS(=O)(=O)c1cccc(Cl)c1
3,98 to 100,CC(=O)c1ccc(OCc2ccccc2C)cc1
4,171 to 173,Cc1ccc(-c2nnc3n2CCCCC3)cc1N
5,182 to 184,CC(C)(C)NS(=O)(=O)c1cc(C(=O)O)ccc1F
6,62 to 64,FC(F)(F)CN1CCNc2ccccc21
7,84 to 86,O=C1CCCN1C1CCNCC1
8,68 to 70,CCOC(=O)C(C)=NNc1ccc(Br)cc1CC
9,141 to 143,NC(=O)C=C1CCCC1
10,229 to 231,O=C(O)c1csc2cncn12
11,106 to 108,OC(c1ccc(Cl)cc1)c1cccnc1 (stereo unspecified)
12,115 to 116,CC(C)c1ccccc1Nc1nc2ccccc2s1
13,74 to 76,CC(=O)c1cc([N+](=O)[O-])c(Cl)s1
14,190 to 192,O=C(O)c1cccc2c3c([nH]c12)CCCC3
15,117 to 119,Nc1cc(-c2cccc(F)c2F)n[nH]1
16,240 to 242,CC(C)C(=O)Nc1ccc(C(=O)O)cc1
17,219 to 221,O=C(O)Cc1cc2c(cc1[N+](=O)[O-])OCCO2
18,127 to 129,CC(C)n1c(S)nnc1N(C)C
19,172 to 174,COc1ccccc1NC(=O)CC1Nc2ccccc2NC1=O (stereo unspecified)
20,118 to 120,O=C(CCl)c1cnc(N2CCCCC2)s1
21,267 to 269,O=C(O)c1ccc(NS(=O)(=O)c2cccc([N+](=O)[O-])c2)cc1
22,194 to 196,CN(C)C(=O)CN1C(=O)C(=O)c2cc(Br)ccc21
23,73 to 75,O=C(Nc1ccccc1[N+](=O)[O-])c1ccc2ccccc2n1

row,melting point [°C],SMILES
1,199 to 201,Cc1cc(C(=O)O)on1
2,199 to 201,NC(C(=O)O)c1ccccc1Br (stereo unspecified)
3,232 to 234,Cc1nn(-c2ccccc2)c(Cl)c1C(=O)O
4,172 to 174,Sc1nncn1-c1ccccc1
5,95 to 97,COc1cccc(-n2cncn2)c1
6,152 to 154,COC(=O)c1ccc(CNc2ccc3c[nH]nc3c2)cc1
7,238 to 240,NNC(=O)c1cc(-c2ccc(Cl)cc2)nc2ccccc12
8,339 to 341,Nc1ncnc2c1ncn2CCCCl
9,240 to 242,CC1(c2ccc(O)cc2)NC(=O)NC1=O (stereo unspecified)
10,142 to 144,CCCc1nc(C(=O)O)nn1-c1ccccc1Cl
11,68 to 70,ClCc1csc(Cc2ccc(Cl)cc2)n1
12,67 to 69,CC(C)(C)OC(=O)NC1CCCCCC1=O (stereo unspecified)
13,175 to 177,Cc1sc(N)nc1-c1cccc([N+](=O)[O-])c1
14,129 to 131,CC(CO)N1Cc2cccc(N)c2C1 (stereo unspecified)
15,159 to 161,CC1CC(N)=NN1Cc1ccccc1 (stereo unspecified)
16,183 to 185,NC(=NO)c1cc2ccccc2o1
17,176 to 178,O=Cc1cn(-c2ccccc2)nc1-c1cc2ccccc2o1
18,223 to 225,CC(C)(C)n1[nH]c(=O)cc1N
19,164 to 166,COc1ccc(Nc2ncccc2N)cc1
20,69 to 71,Nc1ccn(CCc2ccccn2)n1
21,201 to 203,Cn1cc(C(=O)O)c(-c2cccnc2)n1
22,106 to 108,CC1Oc2ccccc2OC1C(=O)O (stereo unspecified)
23,148 to 150,COc1cccc(-c2cc(N)n(CCO)n2)c1

row,melting point [°C],SMILES
1,189 to 191,CC(C)n1c(N)nnc1S
2,49 to 51,CCOC(=O)c1ccc(S(=O)(=O)Cl)cc1
3,193 to 195,O=C(O)C(Cc1ccccc1)N1C(=O)C=CC1=O (stereo unspecified)
4,82 to 84,Cc1ccc(C(=O)CC#N)cc1F
5,311 to 313,Cc1nc2c(c(C)c1CN)c(=O)[nH]n2C
6,74 to 76,O=C(O)C(Sc1ccc(F)c(Cl)c1)c1ccccc1 (stereo unspecified)
7,89 to 91,N#CCC1(Sc2ccccc2N)CCCC1
8,156 to 160,O=C(O)C1CCCN(S(=O)(=O)c2ccc(F)cc2)C1 (stereo unspecified)
9,136 to 140,CC(=O)NC1CCC(=O)CC1
10,114 to 116,O=C1CNC(=O)N1CCCl
11,134 to 136,Nc1cc(C2CC2)nn1-c1ccccc1
12,179 to 181,Cn1c(S)nnc1-c1ccco1
13,227 to 229,NNC(=O)c1cc(N)cc([N+](=O)[O-])c1
14,130 to 135,CS(=O)c1ccccc1C(=O)O (stereo unspecified)
15,88 to 90,COc1cc(OC)cc(N2CCC(N)C2=O)c1 (stereo unspecified)
16,182 to 184,Cc1c(N)cccc1N1C(=O)CCC1=O
17,264 to 266,O=C1Nc2cc(Cl)ccc2C1=O
18,132 to 134,CCc1nc2sccc2c(=O)n1N
19,104 to 106,NC1CCN(c2ccc(Cl)c(Cl)c2)C1=O (stereo unspecified)
20,200 to 202,CC1Cc2ccccc2N1S(=O)(=O)c1ccc(F)c(C(=O)O)c1 (stereo unspecified)

row,SMILES,melting point [°C]
1,Fc1cccc2[nH]c(C3CCNCC3)nc12,229 to 231
2,O=C(CCl)Nc1nncs1,233 to 235
3,c1ccc(CN2CCN(c3ccccc3)CC2)cc1,51 to 53
4,O=C1OC(O)C(Cl)=C1Cl (stereo unspecified),179 to 182
5,NS(=O)(=O)c1ccc([N+](=O)[O-])cc1[N+](=O)[O-],149 to 151
6,Nc1ccc(N2CCNCC2)cn1,162 to 164
